# Experimental data reported in PubChem BioAssay AID2060887 (Molecular Pharmacology Branch, DTP, NCI, 2025).
# System: 782815-120-R-J1-PDC complex spheroid viability
# Assay: Anticancer human tumor 782815-120-R-J1-PDC patient-derived colon adenocarcinoma cell line growth inhibition [RAS]
# Conditions: for IC50: curve of first compound; for viability, T/C: stronger effect = lower value
# Source text: RAS pathway inhibitors in Combinations in Complex Spheroids
# A high-throughput screen of multi-cell type tumor spheroids was designed to identify active combinations of RAS pathway inhibitors and targeted small molecules. Complex spheroids include a stromal component modeled by human endothelial cells (HUVEC) and fibroblasts modeled by human mesenchymal stem cells (MSCs). The concentration ranges selected for each drug and investigational agent were based upon clinically achievable concentrations if the clinical Cmax of the agent was known.
# Compounds. The drugs and investigational agents: abemaciclib (NSC768073), cobimetinib (NSC768068), divarasib (GDC6063, NSC841802), docetaxel (NSC628503), GDC-1971 (RLY-1971, NSC841576), gemcitabine (NSC613327), inavolisib (NSC800729), ipatasertib (NSC767898), KB-0742 (NSC834161), MRTX-1133 (NSC836407), osimertinib (NSC779217), RMC-4630 (NSC839698), RMC-6236 (NSC851965), RMC-6291 (NSC852671), Ro-3306 (NSC812927), sapanisertib (NSC764658), SN-38 (NSC673596), staurosporine (NSC755774), SY5609 (NSC837396), and tovorafenib (DAY101, NSC766906), were obtained from the National Cancer Institute (NCI) Developmental Therapeutics Program Chemical Repository. The FDA-approved anticancer drug set is available from the NCI Developmental Therapeutics Program. […] The stock solutions were prepared in dimethyl sulfoxide (DMSO, Sigma-Aldrich, St. Louis, MO, cat. D2650) at 800-fold the tested concentration and stored at -70 degrees C prior to their use. All drugs and investigational agents were tested over a range starting from a high concentration at or near the clinical Cmax and decreasing in half-log increments. If the clinical Cmax for an agent had not been determined, the highest concentration tested was 10 microM.
# Cell Culture. All cells were maintained in an incubator at 37 degrees C and 5% CO2 with 95% humidity. The PDC lines were cultured according to standard operating procedures established by the NCI PDMR. All PDCs were thawed and cultured in Matrigel-coated flasks prepared with a working solution of 1X Ham's F-12 nutrient mix, without supplementation (Invitrogen, Waltham, MA, cat. 11765054), 100 U/mL penicillin-streptomycin (Invitrogen, cat. 15140122), and 2.5% Matrigel (Corning Inc., Corning, NY, cat. 354248) for the first three passages. The 362531-283-R-J2-PDC and 782815-120-R-J1-PDC lines were cultured in 6C/Colon 1B media, which includes advanced DMEM/F-12 (Thermo Fisher Scientific, cat. 12634028), 10 mM HEPES (Thermo Fisher Scientific, cat. 15630080), 1X GlutaMAX supplement (Thermo Fisher Scientific, cat. 35050061), 0.1 mg/mL primocin (InvivoGen, San Diego, CA, cat. ant-pm-2), 10% defined fetal bovine serum, heat inactivated (HyClone Laboratories Inc., Logan, UT, cat. SH30070.03HI), 50% L-WRN conditioned media (ATCC, cat. CRL-3276), 1.25 mM N-Acetyl-L-cysteine (Sigma-Aldrich, cat. A9165), 10 mM nicotinamide (Sigma-Aldrich, cat. N0636), 1X B-27 supplement (Thermo Fisher Scientific, cat. 17504044), 1X N-2 supplement (Thermo Fisher Scientific, cat. 17502048), 50 ng/mL human EGF (Thermo Fisher Scientific, cat. PHG0311), and 10 microM Y-27632 dihydrochloride (Tocris Bioscience, cat. 1254). The K12877-001-R-J1-PDC line was cultured in 6I media, which includes all 6C/Colon 1B media plus 10 ng/mL human FGF-10 (PeproTech, cat. 100-26), 1 ng/mL human FGF-2 (PeproTech, cat. 100-18B), 1 µM prostaglandin E2 (Tocris Bioscience, cat. 2296), […] hydrocortisone (Sigma-Aldrich, cat. H4001), and […] bovine insulin (Sigma-Aldrich, cat. I6634). The K86415-001-R-J1-PDC line was cultured in 6D media, which includes all 6C/Colon 1B media components minus the L-WRN conditioned media. The 485176-168-R4-J1-PDC was cultured in PANC media, which includes all 6C/Colon 1B media plus 100 ng/mL human FGF-10 (PeproTech, cat. 100-26), 500 nM SB-431542 (Selleckchem, cat. S1067), and 10 nM gastrin (Tocris Bioscience, cat. 3006). […]
# [1] = second compound 0.0316 µM, first compound 0.0316 µM
# [2] = second compound 0.0316 µM, first compound 0.1 µM
# [3] = second compound 0.0316 µM, first compound 0.316 µM
# [4] = second compound 0.0316 µM, first compound 1 µM
# [5] = second compound 0.0316 µM, first compound 3.16 µM
# [6] = second compound 0.0316 µM, first compound 10 µM
# [7] = second compound 0.1 µM, first compound 0.0316 µM
# [8] = second compound 0.1 µM, first compound 0.1 µM
# [9] = second compound 0.1 µM, first compound 0.316 µM
# [10] = second compound 0.1 µM, first compound 1 µM
# [11] = second compound 0.1 µM, first compound 3.16 µM
# [12] = second compound 0.1 µM, first compound 10 µM
# [13] = second compound 0.316 µM, first compound 0.0316 µM
# [14] = second compound 0.316 µM, first compound 0.1 µM
# [15] = second compound 0.316 µM, first compound 0.316 µM
# [16] = second compound 0.316 µM, first compound 1 µM
# [17] = second compound 0.316 µM, first compound 3.16 µM
# [18] = second compound 0.316 µM, first compound 10 µM
# [19] = second compound 1 µM, first compound 0.0316 µM
# [20] = second compound 1 µM, first compound 0.1 µM
# [21] = second compound 1 µM, first compound 0.316 µM
# [22] = second compound 1 µM, first compound 1 µM
# [23] = second compound 1 µM, first compound 3.16 µM
# [24] = second compound 1 µM, first compound 10 µM
# [25] = second compound 3.16 µM, first compound 0.0316 µM
# [26] = second compound 3.16 µM, first compound 0.1 µM
# [27] = second compound 3.16 µM, first compound 0.316 µM
# [28] = second compound 3.16 µM, first compound 1 µM
# [29] = second compound 3.16 µM, first compound 3.16 µM
# [30] = second compound 3.16 µM, first compound 10 µM
# [31] = second compound 10 µM, first compound 0.0316 µM
# [32] = second compound 10 µM, first compound 0.1 µM
# [33] = second compound 10 µM, first compound 0.316 µM
# [34] = second compound 10 µM, first compound 1 µM
# [35] = second compound 10 µM, first compound 3.16 µM
# [36] = second compound 10 µM, first compound 10 µM
# 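Further: spheroids exposed to compounds for 7 days before reading.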
# 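Wherever viability, T/C is given: 100% = DMSO vehicle control viability.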
structure (smiles),measurement,setting,value
CC(C)NCC(C(=O)N1CCN(c2ncnc3c2C(C)CC3O)CC1)c1ccc(Cl)cc1 (stereo unspecified) + C#Cc1c(F)ccc2cc(O)cc(-c3ncc4c(N5CC6CCC(C5)N6)nc(OCC56CCCN5CC(F)C6)nc4c3F)c12,IC50,second compound 0.0316 µM,> 10 µM
same,IC50,second compound 0.1 µM,> 10 µM
same,IC50,second compound 0.316 µM,> 10 µM
same,IC50,second compound 1 µM,> 10 µM
same,IC50,second compound 3.16 µM,> 10 µM
same,IC50,second compound 10 µM,> 10 µM
same,"viability, T/C",[1],95.9%
same,"viability, T/C",[2],106%
same,"viability, T/C",[3],95.6%
same,"viability, T/C",[4],103%
same,"viability, T/C",[5],96.3%
same,"viability, T/C",[6],94.3%
same,"viability, T/C",[7],95.5%
same,"viability, T/C",[8],104%
same,"viability, T/C",[9],101%
same,"viability, T/C",[10],98.1%
same,"viability, T/C",[11],100%
same,"viability, T/C",[12],97%
same,"viability, T/C",[13],109%
same,"viability, T/C",[14],108%
same,"viability, T/C",[15],93.5%
same,"viability, T/C",[16],103%
same,"viability, T/C",[17],96.3%
same,"viability, T/C",[18],105%
same,"viability, T/C",[19],108%
same,"viability, T/C",[20],113%
same,"viability, T/C",[21],90.7%
same,"viability, T/C",[22],94.6%
same,"viability, T/C",[23],103%
same,"viability, T/C",[24],103%
same,"viability, T/C",[25],104%
same,"viability, T/C",[26],101%
same,"viability, T/C",[27],93.1%
same,"viability, T/C",[28],100%
same,"viability, T/C",[29],98.3%
same,"viability, T/C",[30],102%
same,"viability, T/C",[31],103%
same,"viability, T/C",[32],108%
same,"viability, T/C",[33],93.4%
same,"viability, T/C",[34],101%
same,"viability, T/C",[35],96.5%
same,"viability, T/C",[36],98.4%
CC(C)n1nc(-c2ccc3oc(N)nc3c2)c2c(N)ncnc21 + C#Cc1c(F)ccc2cc(O)cc(-c3ncc4c(N5CC6CCC(C5)N6)nc(OCC56CCCN5CC(F)C6)nc4c3F)c12,IC50,second compound 0.0316 µM,> 0.1 µM
same,IC50,second compound 0.1 µM,> 0.1 µM
same,IC50,second compound 0.316 µM,> 0.1 µM
same,IC50,second compound 1 µM,> 0.1 µM
same,IC50,second compound 3.16 µM,> 0.1 µM
same,IC50,second compound 10 µM,> 0.1 µM
same,"viability, T/C","second compound 0.0316 µM, first compound 0.000316 µM",97%
same,"viability, T/C","second compound 0.0316 µM, first compound 0.001 µM",100%
same,"viability, T/C","second compound 0.0316 µM, first compound 0.00316 µM",105%
same,"viability, T/C","second compound 0.0316 µM, first compound 0.01 µM",98.1%
same,"viability, T/C",[1],91.8%
same,"viability, T/C",[2],85.2%
same,"viability, T/C","second compound 0.1 µM, first compound 0.000316 µM",99.1%
same,"viability, T/C","second compound 0.1 µM, first compound 0.001 µM",91.4%
same,"viability, T/C","second compound 0.1 µM, first compound 0.00316 µM",101%
same,"viability, T/C","second compound 0.1 µM, first compound 0.01 µM",89.6%
same,"viability, T/C",[7],97%
same,"viability, T/C",[8],81.6%
same,"viability, T/C","second compound 0.316 µM, first compound 0.000316 µM",96.6%
same,"viability, T/C","second compound 0.316 µM, first compound 0.001 µM",105%
same,"viability, T/C","second compound 0.316 µM, first compound 0.00316 µM",94.5%
same,"viability, T/C","second compound 0.316 µM, first compound 0.01 µM",108%
same,"viability, T/C",[13],88.1%
same,"viability, T/C",[14],84.1%
same,"viability, T/C","second compound 1 µM, first compound 0.000316 µM",99.7%
same,"viability, T/C","second compound 1 µM, first compound 0.001 µM",101%
same,"viability, T/C","second compound 1 µM, first compound 0.00316 µM",88.6%
same,"viability, T/C","second compound 1 µM, first compound 0.01 µM",105%
same,"viability, T/C",[19],93.7%
same,"viability, T/C",[20],83.8%
same,"viability, T/C","second compound 3.16 µM, first compound 0.000316 µM",98.7%
same,"viability, T/C","second compound 3.16 µM, first compound 0.001 µM",101%
same,"viability, T/C","second compound 3.16 µM, first compound 0.00316 µM",93.5%
same,"viability, T/C","second compound 3.16 µM, first compound 0.01 µM",92.6%
same,"viability, T/C",[25],92.1%
same,"viability, T/C",[26],84.4%
same,"viability, T/C","second compound 10 µM, first compound 0.000316 µM",101%
same,"viability, T/C","second compound 10 µM, first compound 0.001 µM",95.3%
same,"viability, T/C","second compound 10 µM, first compound 0.00316 µM",85.3%
same,"viability, T/C","second compound 10 µM, first compound 0.01 µM",92.8%
same,"viability, T/C",[31],88.8%
same,"viability, T/C",[32],74.7%
CC(Nc1ccc2c(c1)OCCn1cc(N3C(=O)OCC3C(F)F)nc1-2)C(N)=O (stereo unspecified) + C#Cc1c(F)ccc2cc(O)cc(-c3ncc4c(N5CC6CCC(C5)N6)nc(OCC56CCCN5CC(F)C6)nc4c3F)c12,IC50,second compound 0.0316 µM,> 10 µM
same,IC50,second compound 0.1 µM,> 10 µM
same,IC50,second compound 0.316 µM,> 10 µM
same,IC50,second compound 1 µM,> 10 µM
same,IC50,second compound 3.16 µM,> 10 µM
same,IC50,second compound 10 µM,> 10 µM
same,"viability, T/C",[1],94.1%
same,"viability, T/C",[2],98.6%
same,"viability, T/C",[3],99.9%
same,"viability, T/C",[4],89.7%
same,"viability, T/C",[5],96.6%
same,"viability, T/C",[6],91.8%
same,"viability, T/C",[7],95.7%
same,"viability, T/C",[8],102%
same,"viability, T/C",[9],92.9%
same,"viability, T/C",[10],90%
same,"viability, T/C",[11],100%
same,"viability, T/C",[12],94.1%
same,"viability, T/C",[13],99%
same,"viability, T/C",[14],99.2%
same,"viability, T/C",[15],87.9%
same,"viability, T/C",[16],99.8%
same,"viability, T/C",[17],101%
same,"viability, T/C",[18],94.6%
same,"viability, T/C",[19],106%
same,"viability, T/C",[20],101%
same,"viability, T/C",[21],89%
same,"viability, T/C",[22],97.2%
same,"viability, T/C",[23],87.7%
same,"viability, T/C",[24],103%
same,"viability, T/C",[25],111%
same,"viability, T/C",[26],92.4%
same,"viability, T/C",[27],97.8%
same,"viability, T/C",[28],87.4%
same,"viability, T/C",[29],97.5%
same,"viability, T/C",[30],95.4%
same,"viability, T/C",[31],102%
same,"viability, T/C",[32],95.9%
same,"viability, T/C",[33],79%
same,"viability, T/C",[34],92.6%
same,"viability, T/C",[35],89.1%
same,"viability, T/C",[36],81.2%
